In this experiment the target is HDAC2 (Homo sapiens, UniProt Q92769). Nature of the experiment: HDAC2 fluorescence inhibition assay (tBoc-Lys(Ac)-AMC).
Sequence of HDAC2 (Q92769 with tags, fused parts or gaps): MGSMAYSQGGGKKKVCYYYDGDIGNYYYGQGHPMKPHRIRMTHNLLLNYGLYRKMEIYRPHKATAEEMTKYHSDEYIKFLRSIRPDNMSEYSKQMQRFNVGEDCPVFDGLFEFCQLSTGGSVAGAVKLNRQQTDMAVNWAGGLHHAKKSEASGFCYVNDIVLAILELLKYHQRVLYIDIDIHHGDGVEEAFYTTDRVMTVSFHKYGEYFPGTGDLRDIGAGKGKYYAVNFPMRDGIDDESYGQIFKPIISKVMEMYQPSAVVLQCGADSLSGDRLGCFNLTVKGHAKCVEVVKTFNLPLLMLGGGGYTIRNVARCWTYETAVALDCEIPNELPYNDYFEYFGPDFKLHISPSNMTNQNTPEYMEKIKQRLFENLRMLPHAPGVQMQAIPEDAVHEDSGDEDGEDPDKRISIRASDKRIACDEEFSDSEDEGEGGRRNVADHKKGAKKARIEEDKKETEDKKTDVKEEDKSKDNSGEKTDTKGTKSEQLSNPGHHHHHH

For orientation: IC50 means the concentration that inhibits the measured activity by half. A lower IC50 goes with greater potency. On to `Nc1ccccc1NC(=O)c1ccc(CN2C(=O)Nc3ccc(-c4ccncc4)cc3S2(=O)=O)cc1` [Example 27, N-(2-Amino-phenyl)-4-(1,1,3-trioxo-7-pyridin-4-yl-3,4-dihydro-1H-1λ^6-benzo[1,2,4]thiadiazin-2-ylmethyl)-benzamide], for which the IC50 was under 0.05 µM.

The record behind these values is US7642253B2, “Histone deacetylase inhibitors” (Takeda San Diego, Inc., priority 2005, dated 2010).
